Results as given in patent publication US8173636B2, “Hydroxylthienoquinolones and related compounds as anti-infective agents” (Achillion Pharmaceuticals, Inc., priority 2009, dated 2012).
In brackets after ≈: the same amount, converted by molar mass.

Tests used:
[1] = system: fluoroquinolone-resistant S. aureus ATCC 700699; experiment: Minimum inhibitory concentration (MIC) assay, broth microdilution, MRSA; assay type: cell-based; details: Staphylococcus aureus; fluoroquinolone-resistant S. aureus ATCC 700699; Table I; read-out: MRSA MIC
Experimental: (§1) The antimicrobial activity of the compounds of the invention may be evaluated by a number of methods, including the following visual minimum inhibitory concentration (MIC) assay. This assay determines the minimum concentration of compound required to inhibit growth of a bacterial strain.
(§2) Whole-cell antibacterial activity is determined by broth microdilution using conditions recommended by the NCCLS (see National Committee for Clinical Laboratory Standards. 2001. Performance standards for antimicrobial susceptibility testing: 11th informational supplement. Vol. 21, no. 1, M100-S11. National Committee for Clinical Laboratory Standards, Wayne, Pa.). Test compounds are dissolved in DMSO and diluted 1:50 in Mueller-Hinton II broth (Becton-Dickinson) to produce a 256 μg/ml stock solution. In a 96-well microtiter plate, the compound solution is serially two-fold diluted in Mueller-Hinton II broth. After the compounds are diluted, a 50 μl aliquot of the test organism (˜1×10^6 cfu/mL) is added to each well of the microtiter plate. The final test concentrations ranges from 0.125-128 μg/mL. Inoculated plates are incubated in ambient air at 37° C. for 18 to 24 hours. The organisms selected for testing included laboratory strains S. aureus ATCC 29213 and E. coli ATCC 25922 (strains purchased from American Type Culture Collection, Manassas, Va.) m, S. aureus FQR700699, and Paeruginosa 27853. The minimum inhibitory concentration (MIC) is determined as the lowest concentration of compound that inhibited visible growth of the test organism.

S. aureus ATCC 29213 = experiment: Minimum inhibitory concentration (MIC) assay, broth microdilution, MSSA; assay type: cell-based; details: Staphylococcus aureus, Table I
Experimental: as §1, §2

SMILES	MIC [1]	MIC (S. aureus ATCC 29213)
COc1c(N2CCCC(C(N)=O)C2)c(F)cc2c(=O)c3c(O)c(C#N)sc3n(C3CC3)c12 (stereo not shown) [Cmp 37, 1-(2-cyano-9-cyclopropyl-6-fluoro-3-hydroxyl-8-methoxy-4-oxo-4,9-dihydrothieno[2,3-b]quinolin-7-yl)piperidine-3-carboxamide]	0.25 µg/mL (≈ 0.548 µM)	0.03 µg/mL (≈ 0.0657 µM)
COc1c(N2C[C@@H]3CCCN[C@@H]3C2)c(F)cc2c(=O)c3c(O)c(C#N)sc3n(C3CC3)c12 [Cmp 38, 9-cyclopropyl-6-fluoro-3-hydroxyl-8-methoxy-4-oxo-7-((4aS,7aS)-tetrahydro-1H-pyrrolo[3,4-b]pyridin-6(2H,7H,7aH)-yl)-4,9-dihydrothieno[2,3-b]quinoline-2-carbonitrile]	8 µg/mL (≈ 17.6 µM)	0.5 µg/mL (≈ 1.1 µM)
COc1c(C2=CCNCC2)c(F)cc2c(=O)c3c(O)c(C#N)sc3n(C3CC3)c12 [Cmp 40]	4 µg/mL (≈ 9.72 µM)	0.5 µg/mL (≈ 1.22 µM)
COc1c(N2CC3CC2CN3)c(F)cc2c(=O)c3c(O)c(C#N)sc3n(C3CC3)c12 (stereo not shown) [Cmp 41, 7-(2,5-diazabicyclo[2.2.1]heptan-2-yl)-9-cyclopropyl-6-fluoro-3-hydroxyl-8-methoxy-4-oxo-4,9-dihydrothieno [2,3-b]quinoline-2-carbonitrile]	1 µg/mL (≈ 2.34 µM)	0.13 µg/mL (≈ 0.305 µM)
COc1c(N2C[C@H]3CNC[C@H]3C2)c(F)cc2c(=O)c3c(O)c(C#N)sc3n(C3CC3)c12 [Cmp 42, 9-cyclopropyl-6-fluoro-7-((3aR,6aS)-hexahydropyrrolo [3,4-c]pyrrol-2(1H)-yl)-3-hydroxyl-8-methoxy-4-oxo-4,9-dihydrothieno[2,3-b]quinoline-2-carbonitrile]	1 µg/mL (≈ 2.27 µM)	0.25 µg/mL (≈ 0.568 µM)
COc1c(N2CCC(C(F)(F)F)CC2)c(F)cc2c(=O)c3c(n(C4CC4)c12)SC(C#N)C3=O (stereo not shown) [Cmp 43, 9-cyclopropyl-6-fluoro-8-methoxy-3,4-dioxo-7-(4-(trifluoromethyl)piperidin-1-yl)-2,3,4,9-tetrahydrothieno [2,3-b]quinoline-2-carbonitrile]	8 µg/mL (≈ 16.6 µM)	1 µg/mL (≈ 2.08 µM)
COc1c(N2CCC(C(N)=O)CC2)c(F)cc2c(=O)c3c(n(C4CC4)c12)SC(C#N)C3=O (stereo not shown) [Cmp 45, 1-(2-cyano-9-cyclopropyl-6-fluoro-8-methoxy-3,4-dioxo-2,3,4,9-tetrahydrothieno[2,3-b]quinolin-7-yl)piperidine-4-carboxamide]	0.5 µg/mL (≈ 1.1 µM)	0.03 µg/mL (≈ 0.0657 µM)
COc1c(N2CCC[C@H]2C(N)=O)c(F)cc2c(=O)c3c(n(C4CC4)c12)SC(C#N)C3=O (stereo partly drawn) [Cmp 46, (2S)-1-(2-cyano-9-cyclopropyl-6-fluoro-8-methoxy-3,4-dioxo-2,3,4,9-tetrahydrothieno[2,3-b]quinolin-7-yl)pyrrolidine-2-carboxamide]	64 µg/mL (≈ 145 µM)	4 µg/mL (≈ 9.04 µM)
C[C@H]1COc2c(N3CCNCC3)c(F)cc3c(=O)c4c(n1c23)SC(C#N)C4=O (stereo partly drawn) [Cmp 47, (1S)-5-fluoro-1-methyl-7,8-dioxo-4-(piperazin-1-yl)-2,7,8,9-tetrahydro-1H-[1,4]oxazino[2,3,4-ij]thieno[2,3-b] quinoline-9-carbonitrile]	4 µg/mL (≈ 9.99 µM)	1 µg/mL (≈ 2.5 µM)
COc1c(N2CCC(c3ncn[nH]3)CC2)c(F)cc2c(=O)c3c(n(C4CC4)c12)SC(C#N)C3=O (stereo not shown) [Cmp 48, 7-(4-(1H-1,2,4-triazol-5-yl)piperidin-1-yl)-9-cyclopropyl-6-fluoro-8-methoxy-3,4-dioxo-2,3,4,9-tetrahydrothieno [2,3-b]quinoline-2-carbonitrile]	0.25 µg/mL (≈ 0.52 µM)	0.03 µg/mL (≈ 0.0624 µM)
COc1c(N2CC[C@@H](C(C)(C)NCCC#N)C2)c(F)cc2c(=O)c3c(n(C4CC4)c12)SC(C#N)C3=O (stereo partly drawn) [Cmp 49, 7-((R)-3-(2-(2-cyanoethylamino)propan-2-yl)pyrrolidin-1-yl)-9-cyclopropyl-6-fluoro-8-methoxy-3,4-dioxo-2,3,4,9-tetrahydrothieno[2,3-b]quinoline-2-carbonitrile]	0.5 µg/mL (≈ 0.981 µM)	0.06 µg/mL (≈ 0.118 µM)
COc1c(N2CCCC(c3ncn[nH]3)C2)c(F)cc2c(=O)c3c(n(C4CC4)c12)SC(C#N)C3=O (stereo not shown) [Cmp 53, 7-(3-(1H-1,2,4-triazol-5-yl)piperidin-1-yl)-9-cyclopropyl-6-fluoro-8-methoxy-4-dioxo-2,3,4,9-tetrahydrothieno [2,3-b]quinoline-2-carbonitrile]	2 µg/mL (≈ 4.16 µM)	0.13 µg/mL (≈ 0.271 µM)
COc1c(N2CCC[C@H](N)C2)c(F)cc2c(=O)c3c(O)c(C#N)sc3n(C3CC3)c12 [Cmp 54, (S)-7-(3-aminopiperidin-1-yl)-9-cyclopropyl-6-fluoro-3-hydroxyl-8-methoxy-4-oxo-4,9-dihydrothieno[2,3-b] quinoline-2-carbonitrile]	0.5 µg/mL (≈ 1.17 µM)	0.13 µg/mL (≈ 0.303 µM)
COc1c(N2CCN(CC#N)CC2)c(F)cc2c(=O)c3c(O)c(C#N)sc3n(C3CC3)c12 [Cmp 55, 7-(4-(cyanomethyl)piperazin-1-yl)-9-cyclopropyl-6-fluoro-3-hydroxyl-8-methoxy-4-oxo-4,9-dihydrothieno [2,3-b]quinoline-2-carbonitrile]	0.5 µg/mL (≈ 1.1 µM)	0.06 µg/mL (≈ 0.132 µM)
CCC(=O)c1sc2c(c1O)c(=O)c1cc(F)c(N3CC[C@@H](C(C)(C)N)C3)c(OC)c1n2C1CC1 [Cmp 62, (R)-7-(3-(2-aminopropan-2-yl)pyrrolidin-1-yl)-9-cyclopropyl-6-fluoro-3-hydroxyl-8-methoxy-2-propionylthieno [2,3-b]quinolin-4(9H)-one]	1 µg/mL (≈ 2.05 µM)	0.5 µg/mL (≈ 1.03 µM)

Continued by falling MIC [1], values first:

MIC [1]	MIC (S. aureus ATCC 29213)	SMILES
2 µg/mL (≈ 4.37 µM)	0.25 µg/mL (≈ 0.546 µM)	COc1c(N2CCNC(C(N)=O)C2)c(F)cc2c(=O)c3c(n(C4CC4)c12)SC(C#N)C3=O (stereo not shown) [Cmp 52, 4-(2-cyano-9-cyclopropyl-6-fluoro-8-methoxy-3,4-dioxo-2,3,4,9-tetrahydrothieno[2,3-b]quinolin-7-yl) piperazine-2-carboxamide]
2 µg/mL (≈ 4.34 µM)	0.5 µg/mL (≈ 1.09 µM)	COc1c(N2CCCC(CN)C2)c(F)cc2c(=O)c3c(O)c(C(N)=O)sc3n(C3CC3)c12 (stereo not shown) [Cmp 65, 7-(3-(aminomethyl)piperidin-1-yl)-9-cyclopropyl-6-fluoro-3-hydroxyl-8-methoxy-4-oxo-4,9-dihydrothieno [2,3-b]quinoline-2-carboxamide]
1 µg/mL (≈ 2.12 µM)	0.13 µg/mL (≈ 0.276 µM)	CO/N=C1\CN(c2c(F)cc3c(=O)c4c(O)c(C#N)sc4n(C4CC4)c3c2OC)CC1CN (stereo not shown) [Cmp 39, (Z)-7-(3-(aminomethyl)-4-(methoxyimino)pyrrolidin-1-yl)-9-cyclopropyl-6-fluoro-3-hydroxyl-8-methoxy-4-oxo-4,9-dihydrothieno[2,3-b]quinoline-2-carbonitrile]
1 µg/mL (≈ 2.03 µM)	0.06 µg/mL (≈ 0.122 µM)	COc1c(-c2ccnc(N3CCNCC3)c2)c(F)cc2c(=O)c3c(n(C4CC4)c12)SC(C#N)C3=O (stereo not shown) [Cmp 50, 9-cyclopropyl-6-fluoro-8-methoxy-3,4-dioxo-7-(2-(piperazin-1-yl)pyridin-4-yl)-2,3,4,9-tetrahydrothieno [2,3-b]quinoline-2-carbonitrile]
0.5 µg/mL (≈ 1.26 µM)	0.03 µg/mL (≈ 0.0757 µM)	COc1c(-c2cn[nH]c2)c(F)cc2c(=O)c3c(n(C4CC4)c12)SC(C#N)C3=O (stereo not shown) [Cmp 51, 9-cyclopropyl-6-fluoro-8-methoxy-3,4-dioxo-7-(1H-pyrazol-4-yl)-2,3,4,9-tetrahydrothieno[2,3-b]quinoline-2-carbonitrile]
0.5 µg/mL (≈ 1.12 µM)	0.13 µg/mL (≈ 0.291 µM)	COc1c(N2CC[C@@H](CN)C2)c(F)cc2c(=O)c3c(O)c(C(N)=O)sc3n(C3CC3)c12 [Cmp 61, (S)-7-(3-(aminomethyl)pyrrolidin-1-yl)-9-cyclopropyl-6-fluoro-3-hydroxyl-8-methoxy-4-oxo-4,9-dihydrothieno [2,3-b]quinoline-2-carboxamide]
0.5 µg/mL (≈ 1.02 µM)	0.25 µg/mL (≈ 0.511 µM)	COc1c(N2CCCC(=C(F)CN)C2)c(F)cc2c(=O)c3c(O)c(C(C)=O)sc3n(C3CC3)c12 [Cmp 66, 2-acetyl-7-(3-(2-amino-1-fluoroethylidene)piperidin-1-yl)-9-cycloprop-6-fluoro-3-hydroxyl-8-methoxythieno[2,3-b] quinolin-4(9H)-one]
0.13 µg/mL (≈ 0.279 µM)	0.02 µg/mL (≈ 0.0429 µM)	COc1c(N2CC[C@@H](c3ncn[nH]3)C2)c(F)cc2c(=O)c3c(n(C4CC4)c12)SC(C#N)C3=O (stereo partly drawn) [Cmp 44, 7-((R)-3-(1H-1,2,4-triazol-5-yl)pyrrolidin-1-yl)-9-cyclopropyl-6-fluoro-8-methoxy-3,4-dioxo-2,3,4,9-tetrahydrothieno [2,3-b]quinoline-2-carbonitrile]
